“And” between values parts separate entries of the source, which are not always exact repeats. Equal entries are not always repeated.
How the values were obtained:
CAMKK2 = CAMKK2 (Homo sapiens (Human), UniProt Q96RR4); test: Selectivity dose-response kinase assay, CAMKK2; type: biochemical; conditions: 100 μM ATP
Description: (§1) CHK1 and NUAK1 were purchased from SignalChem (Vancouver, BC). The NUAK2, CHK, and SAMS peptides were purchased from BioSyn (Lewisville, Tex.). The sequence of CHK and NUAK2 peptides are described elsewhere (Sanchez Y, et al. Science (New York, N.Y.). 1997; 277(5331):1497-1501; Scott J W, et al. Sci Rep. 2015; 5:14436). ERK2, AMPK, CAMKK2, and Ets1 were produced in house as previously described (Waas W F, Dalby K N. The Journal of biological chemistry. 2002; 277(15):12532-12540; Neumann D, et al. Protein Expr Purif. 2003; 30(2):230-237; Waas W F, Dalby K N. Protein Expr Purif. 2001; 23(1):191-197). Apparent KM values for ATP under specific assay conditions were determined using respective experimental conditions in Table 8 with varied ATP (0-1.28 mM). All selectivity dose-response assays were performed in kinase assay buffer (see Inhibitor Library Screen) with 2 mM DTT and 100 μM γ-^32P-ATP with additional conditions listed in Table 8. IC50 and KM^ATP values were subsequently used to calculate Ki (Equation 4). Relative selectivity was determined by comparing Ki^Enzyme/Ki^MELK (termed φ in Table 7). […] Standard error from linear regression data was propagated internally in Prism and taken into account in nonlinear regression to determine IC50 or Ki.

AMPK = AMPK (Rattus norvegicus (Rat), UniProt P54645); test: Selectivity dose-response kinase assay, AMPK; type: biochemical; conditions: 100 μM ATP
Chain of AMPK (P54645 whole entry, looked up): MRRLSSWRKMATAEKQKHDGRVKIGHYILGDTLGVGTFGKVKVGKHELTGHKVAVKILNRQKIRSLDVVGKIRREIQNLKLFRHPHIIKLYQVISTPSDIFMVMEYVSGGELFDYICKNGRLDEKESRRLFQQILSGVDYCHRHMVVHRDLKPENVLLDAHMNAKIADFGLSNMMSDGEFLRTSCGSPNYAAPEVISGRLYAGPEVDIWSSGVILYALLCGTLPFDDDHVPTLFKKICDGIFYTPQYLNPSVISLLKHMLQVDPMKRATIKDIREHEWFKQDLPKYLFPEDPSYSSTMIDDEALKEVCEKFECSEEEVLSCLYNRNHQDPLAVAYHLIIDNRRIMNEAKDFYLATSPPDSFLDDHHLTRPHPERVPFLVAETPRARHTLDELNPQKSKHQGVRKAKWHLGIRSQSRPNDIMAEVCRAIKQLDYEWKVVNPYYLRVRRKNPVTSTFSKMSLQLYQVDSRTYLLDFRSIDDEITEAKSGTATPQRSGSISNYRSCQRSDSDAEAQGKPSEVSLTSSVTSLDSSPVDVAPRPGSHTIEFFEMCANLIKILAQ
Chain of AMPK (P80386 whole entry partner, looked up): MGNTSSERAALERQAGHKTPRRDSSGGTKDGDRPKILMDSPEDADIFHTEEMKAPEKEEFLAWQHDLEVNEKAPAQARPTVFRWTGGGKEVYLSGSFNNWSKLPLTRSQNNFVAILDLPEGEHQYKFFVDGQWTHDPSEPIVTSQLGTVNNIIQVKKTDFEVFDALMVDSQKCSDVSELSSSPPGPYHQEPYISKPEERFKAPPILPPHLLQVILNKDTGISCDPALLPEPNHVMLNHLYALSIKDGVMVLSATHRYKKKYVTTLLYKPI
Chain of AMPK (P80385 whole entry partner, looked up): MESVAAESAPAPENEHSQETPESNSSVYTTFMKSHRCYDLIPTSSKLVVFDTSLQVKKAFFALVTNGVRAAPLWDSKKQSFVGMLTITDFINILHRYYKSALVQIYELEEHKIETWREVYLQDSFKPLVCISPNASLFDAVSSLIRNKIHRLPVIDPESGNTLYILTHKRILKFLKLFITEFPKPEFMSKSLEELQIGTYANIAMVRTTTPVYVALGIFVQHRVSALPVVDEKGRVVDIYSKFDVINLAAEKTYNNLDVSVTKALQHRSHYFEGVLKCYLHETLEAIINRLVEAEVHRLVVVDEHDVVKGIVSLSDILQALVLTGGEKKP
Description: as §1

HCC70 cells = test: Cell proliferation, CellTiter-Blue viability assay, HCC70; type: cell-based, human; conditions: 72 h after treatment
Description: (§2) HCC70, BT-549, and SUM159 human TNBC cell lines and MCF10A human breast epithelial cell line were purchased from American Type Culture Collection. The murine 4T1-Luc TNBC cells were purchased from PerkinElmer. HCC70, BT-549, and 4T1-Luc cells were maintained in RPMI 1640 medium (Life Technologies Inc., Grand Island, N.Y., USA) and MDA-MB-231-LM2 cells in Dulbecco's modified Eagle's medium/F12 medium (Life Technologies Inc., Grand Island, N.Y., USA), both types of medium supplemented with FBS (10%) and antibiotic/antimycotic (1%). SUM159 cells were maintained in Ham's F-12 medium (Life Technologies Inc., Grand Island, N.Y., USA) supplemented with FBS (5%), antibiotic/antimycotic (1%), insulin (5 μg/mL), and hydrocortisone (1 μg/mL). MCF10A cells were maintained in Dulbecco's modified Eagle's medium/F12 medium supplemented with horse serum (10%), antibiotic/antimycotic (1%), insulin (10 μg/mL), EGF (20 ng/mL), cholera toxin (100 ng/mL), and hydrocortisone (500 μg/mL). […]
(§3) Cell proliferation was determined using the CellTiter-Blue viability assay as described previously (Gloeckner H, et al. Journal of immunological methods. 2001; 252(1-2):131-138). […] At 72 h after MELK inhibitor treatment, optical density at 595 nm was determined.

MCF10A cells = test: Cell proliferation, CellTiter-Blue viability assay, MCF10A; type: cell-based, human; conditions: 72 h after treatment
Description: HCC70, BT-549, and SUM159 human TNBC cell lines and MCF10A human breast epithelial cell line were purchased from American Type Culture Collection. The murine 4T1-Luc TNBC cells were purchased from PerkinElmer. HCC70, BT-549, and 4T1-Luc cells were maintained in RPMI 1640 medium (Life Technologies Inc., Grand Island, N.Y., USA) and MDA-MB-231-LM2 cells in Dulbecco's modified Eagle's medium/F12 medium (Life Technologies Inc., Grand Island, N.Y., USA), both types of medium supplemented with FBS (10%) and antibiotic/antimycotic (1%). SUM159 cells were maintained in Ham's F-12 medium (Life Technologies Inc., Grand Island, N.Y., USA) supplemented with FBS (5%), antibiotic/antimycotic (1%), insulin (5 μg/mL), and hydrocortisone (1 μg/mL). MCF10A cells were maintained in Dulbecco's modified Eagle's medium/F12 medium supplemented with horse serum (10%), antibiotic/antimycotic (1%), insulin (10 μg/mL), EGF (20 ng/mL), cholera toxin (100 ng/mL), and hydrocortisone (500 μg/mL). All cell lines used in this study were validated by the Characterized Cell Line Core Facility at MD Anderson Cancer Center by using a short tandem repeat method based on primer extension to detect single base deviations.
Cell proliferation was determined using the CellTiter-Blue viability assay as described previously (Gloeckner H, et al. Journal of immunological methods. 2001; 252(1-2):131-138). Cells were seeded in 96-well plates and treated the next day with MELK inhibitors (0-20 μM). At 72 h after MELK inhibitor treatment, optical density at 595 nm was determined.

CHK1 = CHK1 (Homo sapiens (Human), UniProt O14757); test: Selectivity dose-response kinase assay, CHK1; type: biochemical; conditions: 100 μM ATP
Chain of CHK1 (O14757 whole entry): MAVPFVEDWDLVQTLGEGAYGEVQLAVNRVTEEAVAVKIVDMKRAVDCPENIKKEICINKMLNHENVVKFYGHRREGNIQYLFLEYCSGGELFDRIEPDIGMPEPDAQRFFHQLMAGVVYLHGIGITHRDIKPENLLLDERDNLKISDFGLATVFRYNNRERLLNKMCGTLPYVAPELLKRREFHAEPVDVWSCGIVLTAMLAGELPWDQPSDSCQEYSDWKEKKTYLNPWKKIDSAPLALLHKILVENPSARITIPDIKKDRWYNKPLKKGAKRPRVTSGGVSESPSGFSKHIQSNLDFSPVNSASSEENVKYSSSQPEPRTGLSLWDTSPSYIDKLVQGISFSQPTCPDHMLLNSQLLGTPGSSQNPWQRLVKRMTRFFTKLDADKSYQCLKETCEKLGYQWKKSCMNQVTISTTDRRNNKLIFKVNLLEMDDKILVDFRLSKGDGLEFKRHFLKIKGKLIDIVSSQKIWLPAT
Description: as §1

SUM-159 cells = test: Cell proliferation, CellTiter-Blue viability assay, SUM-159; type: cell-based, human; conditions: 72 h after treatment
Description: as §2, §3

ERK2 = ERK2 (Rattus norvegicus (Rat), UniProt P63086); test: Selectivity dose-response kinase assay, ERK2; type: biochemical; conditions: 100 μM ATP
Chain of ERK2 (P63086 whole entry): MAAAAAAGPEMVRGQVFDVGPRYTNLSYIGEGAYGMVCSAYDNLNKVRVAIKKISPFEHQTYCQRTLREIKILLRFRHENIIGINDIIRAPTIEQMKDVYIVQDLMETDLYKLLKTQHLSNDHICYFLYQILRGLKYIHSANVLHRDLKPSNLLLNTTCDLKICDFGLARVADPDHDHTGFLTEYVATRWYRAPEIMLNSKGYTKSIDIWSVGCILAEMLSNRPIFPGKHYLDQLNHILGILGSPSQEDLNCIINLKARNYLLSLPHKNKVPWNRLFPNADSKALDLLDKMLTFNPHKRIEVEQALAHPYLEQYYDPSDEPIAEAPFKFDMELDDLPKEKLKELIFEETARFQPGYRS
Description: as §1

BT-549 cells = test: Cell proliferation, CellTiter-Blue viability assay, BT-549; type: cell-based, human; conditions: 72 h after treatment
Description: as §2, §3

NUAK1 = NUAK1 (Homo sapiens (Human), UniProt O60285); test: Selectivity dose-response kinase assay, NUAK1; type: biochemical; conditions: 100 μM ATP
Chain of NUAK1 (O60285 whole entry): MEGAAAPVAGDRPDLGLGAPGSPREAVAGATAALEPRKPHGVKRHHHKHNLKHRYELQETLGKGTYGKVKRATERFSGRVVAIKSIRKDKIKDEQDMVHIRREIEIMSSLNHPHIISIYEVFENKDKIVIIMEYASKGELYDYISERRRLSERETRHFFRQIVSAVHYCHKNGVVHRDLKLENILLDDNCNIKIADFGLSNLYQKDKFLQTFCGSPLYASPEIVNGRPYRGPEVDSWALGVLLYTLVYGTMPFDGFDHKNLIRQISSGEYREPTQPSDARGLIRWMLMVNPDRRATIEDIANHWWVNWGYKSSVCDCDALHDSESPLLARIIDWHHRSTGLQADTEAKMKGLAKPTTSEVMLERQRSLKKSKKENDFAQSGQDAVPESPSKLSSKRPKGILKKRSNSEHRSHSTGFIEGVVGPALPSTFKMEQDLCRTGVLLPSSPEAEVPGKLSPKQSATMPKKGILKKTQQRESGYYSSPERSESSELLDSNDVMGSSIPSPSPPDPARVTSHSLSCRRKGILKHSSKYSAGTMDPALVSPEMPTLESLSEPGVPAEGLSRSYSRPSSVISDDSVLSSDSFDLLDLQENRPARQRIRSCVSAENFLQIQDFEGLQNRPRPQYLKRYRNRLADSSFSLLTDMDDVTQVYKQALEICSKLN
Description: as §1

MELK = MELK (Homo sapiens (Human), UniProt Q14680); test: MELK p81-based kinase assay, dose-response (IC50/Ki); type: biochemical
Chain of MELK (Q14680 1-340): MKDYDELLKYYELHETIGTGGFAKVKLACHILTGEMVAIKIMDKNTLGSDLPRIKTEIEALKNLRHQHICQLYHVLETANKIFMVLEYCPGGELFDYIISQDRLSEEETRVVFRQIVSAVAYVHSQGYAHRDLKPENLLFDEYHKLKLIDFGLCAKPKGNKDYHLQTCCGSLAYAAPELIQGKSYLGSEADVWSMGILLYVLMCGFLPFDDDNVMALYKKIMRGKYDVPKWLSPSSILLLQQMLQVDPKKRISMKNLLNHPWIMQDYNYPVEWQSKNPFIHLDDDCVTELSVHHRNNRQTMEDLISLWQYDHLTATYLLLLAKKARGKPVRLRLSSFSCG
Method: MELK and its substrate, Bcl-G were both recombinantly expressed and purified for use in screening assays (See Methods). […] 10 nM MELK 340 and 10 μM Bcl-GL in kinase assay buffer (50 mM HEPES pH 7.5, 100 mM KCl, 0.1 mM EDTA, 0.1 mM EGTA, 10 mM MgCl2, 10 μg/mL BSA) with 10 mM DTT were added to either 10 μM or 1 μM inhibitor aliquoted into 96 well plates (final 1% DMSO). The mixture was incubated at room temperature for 30 minutes prior to initiation of the assay with 40 μM γ-^32P-ATP (100-1000 CPM/pmol). 40 μL aliquots were spotted onto a p81 96 well filter plate (Unifilter, Whatman), quenched, and washed with 75 mM O-phosphoric acid 8 times, followed by a final wash with acetone for drying. Wells were then filled with scintillation fluid, sealed, and quantified using a MicroBeta TriLux liquid scintillation counter (PerkinElmer). Each inhibitor plate was assayed in duplicate, with at least 4 wells without MELK to establish background and at least 4 wells without inhibitor as a negative control. All readings were corrected for background signal based on the average counts from the wells without enzyme. Percent inhibition, defined as [100−(CPM+inhibitor/average CPM of positive controls)*100], was determined first at 10 μM inhibitor. The top 50 inhibitors were then re-screened in duplicate at 1 μM.
At set time points (0.25, 0.5, 1, 1.5, and 2 min for assays containing 10 nM MELK and 1, 2, 4, 6, and 10 min for assays containing 1 nM MELK), 30 μL aliquots were taken from each reaction and spotted onto 2×2 cm squares of p81 paper. Papers were washed 4 times in 75 mM O-phosphoric acid and once in acetone. Labeled protein was quantified by its associated CPM determined on a Packard 1500 scintillation counter at a sigma value of 2. CPM were translated into nmol ^32P incorporated using Equation 1.
Rates in the presence of each concentration of inhibitor were determined by plotting nmol ^32P incorporated vs. time. These rates were normalized to rates obtained without inhibitor, and data were plotted in terms of fractional activity. In most cases, data were fit to Equation 2. If the IC50 approached the amount of enzyme used in the assay, data were re-fit to the equation for tight-binding inhibitors (the Morrison equation, […]). […] Data were transformed as discussed and fit to Equation 3.
IC50 values were used to estimate each inhibitor's Ki using the Cheng-Prusoff relationship for competitive inhibitors (Equation 4).

Chain of CAMKK2 (Q96RR4 whole entry, species assumed): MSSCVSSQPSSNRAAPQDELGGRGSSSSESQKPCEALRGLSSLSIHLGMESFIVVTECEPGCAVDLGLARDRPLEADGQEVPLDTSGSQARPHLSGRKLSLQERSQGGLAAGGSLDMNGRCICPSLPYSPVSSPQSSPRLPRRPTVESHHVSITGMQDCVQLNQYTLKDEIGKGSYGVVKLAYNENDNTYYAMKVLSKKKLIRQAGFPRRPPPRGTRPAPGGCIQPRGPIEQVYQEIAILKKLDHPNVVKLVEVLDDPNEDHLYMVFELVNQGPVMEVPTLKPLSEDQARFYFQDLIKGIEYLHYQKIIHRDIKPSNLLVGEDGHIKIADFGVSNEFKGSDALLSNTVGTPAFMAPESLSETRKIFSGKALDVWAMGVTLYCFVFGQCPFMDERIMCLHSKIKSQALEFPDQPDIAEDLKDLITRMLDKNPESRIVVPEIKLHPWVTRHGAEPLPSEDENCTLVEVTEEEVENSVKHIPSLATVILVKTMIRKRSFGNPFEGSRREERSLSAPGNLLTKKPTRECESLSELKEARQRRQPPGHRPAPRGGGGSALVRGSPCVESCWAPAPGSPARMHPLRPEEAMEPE

## COC(=O)c1ccc2c(c1)/C(=C(/Nc1ccc(N(C)C(=O)CN3CCN(C)CC3)cc1)c1ccccc1)C(=O)N2 [Compound 17, Methyl(Z)-3-(((4-(N-methyl-2-(4-methylpiperazin-1-yl)acetamido)phenyl)amino)(phenyl)methylene)-2-oxoindoline-5-carboxylate]
CAMKK2
  Ki: 31 ± 11 nM
AMPK
  Ki: 9.2 ± 1.7 nM
HCC70 cells
  proliferation of HCC70 cells: clearly impacted
MCF10A cells
  proliferation of MCF10A cells: little effect
MCF10A cells; at 10 μM
  proliferation of MCF10A cells: remained largely unaffected
CHK1
  Ki: 7 ± 0.17 nM
SUM-159 cells
  proliferation of SUM-159 cells: clearly impacted
ERK2
  Ki: 3000 ± 1300 nM
BT-549 cells
  proliferation of BT-549 cells: clearly impacted
NUAK1
  Ki: 11 ± 0.86 nM

## CN1CCN(CC(=O)N(C)c2ccc(N/C(=C3\C(=O)Nc4ccc(F)cc43)c3ccccc3)cc2)CC1 [Compound 19, (Z)—N-(4-(((5-Fluoro-2-oxoindolin-3-ylidene)(phenyl)methyl)amino)phenyl)-N-methyl-2-(4-methylpiperazin-1-yl)acetamide]
HCC70 cells
  proliferation of HCC70 cells: inhibited all cell lines
MCF10A cells
  proliferation of MCF10A cells: inhibited all cell lines
MELK; Ki calculated using Equation 4, [ATP] = 40 μM, KM app (ATP) = 6 μM, read-out: Ki ± SE
  Ki: 3.1 nM and 0.68 nM
MELK; indolinone derivatives, 40 μM ATP, read-out: IC50
  IC50: 24 ± 4.7 nM
SUM-159 cells
  proliferation of SUM-159 cells: inhibited all cell lines
BT-549 cells
  proliferation of BT-549 cells: inhibited all cell lines
